According to PubChem BioAssay (NCI):
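Abbreviation: GI50, concentration required for 50% inhibition of growth. Definition used: TGI = concentration required for complete inhibition of growth.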

Legend:
Assay in all cases: NCI anticancer screen, dose series, 384-well format
SF-539 CNS = test system: SF-539 CNS
HT29 colon = test system: HT29 colon
SF-295 CNS = test system: SF-295 CNS
UACC-257 melanoma = test system: UACC-257 melanoma
MCF7 breast = test system: MCF7 breast
M14 melanoma = test system: M14 melanoma
NCI-H460 NSCLC = test system: NCI-H460 NSCLC
A549 NSCLC = test system: A549 NSCLC
UACC-62 melanoma = test system: UACC-62 melanoma
OVCAR-4 ovarian = test system: OVCAR-4 ovarian
RXF 393 renal = test system: RXF 393 renal
T-47D breast = test system: T-47D breast
MDA-MB-468 breast = test system: MDA-MB-468 breast

## C=CC(=O)Nc1cccc(Oc2nc(Nc3ccc(N4CCN(C)CC4)cc3)nc3ccsc23)c1
SF-539 CNS
  GI50: 1.75 µM
  TGI: 3.15 µM
HT29 colon
  GI50: 1.74 µM
  TGI: 3.16 µM
SF-295 CNS
  GI50: 5.01 µM
  TGI: 15.7 µM
UACC-257 melanoma
  GI50: 1.52 µM
  TGI: 2.87 µM
MCF7 breast
  GI50: 1.55 µM
  TGI: 2.96 µM
M14 melanoma
  GI50: 1.89 µM
  TGI: 3.32 µM
NCI-H460 NSCLC
  GI50: 1.62 µM
  TGI: 3.03 µM
A549 NSCLC
  GI50: 1.64 µM
  TGI: 3.5 µM
UACC-62 melanoma
  GI50: 1.52 µM
  TGI: 2.87 µM
OVCAR-4 ovarian
  GI50: 1.69 µM
  TGI: 3.13 µM
RXF 393 renal
  GI50: 1.23 µM
  TGI: 2.49 µM
T-47D breast
  GI50: 1.5 µM
  TGI: 2.84 µM
MDA-MB-468 breast
  GI50: 0.191 µM
  TGI: 0.629 µM
